According to US20230203482A1, “Methods of Rescuing Stop Codons via Genetic Reassignment with ACE-tRNA” (THE WISTAR INSTITUTE OF ANATOMY AND BIOLOGY, priority 2017, published 2023):

System: NLuc-UGA PTC
Test: NanoLuc nonsense reporter screen (all-in-one HTC plasmid), TGA/UGA PTC, HEK293 cells
Type: cell-based, human
Conditions: for stop codon selectivity (NanoLuc TGA, TAA or TAG reporter): transiently transfected HEK293 cells
From the text: Several different nonsense mutations cause CF, thus underlying roughly 10% of all CF disease. FIG. 7. These cases are concentrated into […] specific genetic lesions: E60X, R75X, G542X, R553X, Q890X, Y1092X, R1158X, R1162X and W1282X. A screen was developed to screen existing human tRNA sequences for modification and tolerance to anti-codon editing. To this end, roughly 144 ACE-tRNAs were candidates to test for those that could be used to promote the repair of the disease causative nonsense codon and the expression of the full-length protein. Specifically, using the scheme described in FIG. 11, tRNA libraries were generated to identify novel tRNA sequences that encode for ACE tRNA with the ability to repair the top CF causative nonsense mutations. Specifically, 10 ng of annealed oligos encoding the ACE-tRNAs were combined with 50 ng of NanoLuc reporter plasmid, 1 μl 10×CutSmart Buffer (NEB), 1 μl T4 ligase (NEB), 10 mM ATP and 1 μl BbsI (NEB) and cycled in a thermocycler as described in FIG. 11. 1 μl of the reaction was transformed into competent E. coli and the transformants were plated on ampicillin agar plates. One transformant was picked per plate was picked, grown in 1 ml of LB under ampicillin selection, miniprepped and sequence verified.
Screening studies were first performed to identify the best ACE-tRNA Candidates from tryptophan and glycine. 125 ng of sequence verified miniprep cDNA of NanoLuc reporter plasmid with ACE-tRNA was transfected into HEK cells using calcium phosphate. HEK cells were plated in 96 well plates at 4×10^4 the day prior. 24 hours after transfection the media was replaced with 20 μl of PBS and 15 μl of NanoGlo reagent (Promega) was added. Plates were read on a SpectraMax i3 (Molecular Devices). Data are of replicates of 3 or greater. FIG. 8.
FIG. 10. An additional modification of the tRNA was made to further enable their function for the purpose of suppression of nonsense codons and the promotion of protein expression. […] To this end, single and double mutations were directly engineered into the t-stem loop of tRNA Trpchr17.trna39—an ACE-tRNA identified with activity for the rescue of tryptophan TGA nonsense codons. Thirty-eight tRNA t-stem variants were thus generated and screened in HEK cells transiently transfected with the nonsense rescue reporter construct shown in FIG. 4. […] This is a generalizable modification, that is, new tRNA sequences identified, by example 1 and 2, can be made better (for their ability to rescue nonsense codons) through further rationale modifications. Such approaches aid in the therapeutic utility of ACE-tRNA directed to tissue types with low abundance target RNA or where tRNA delivery may be limiting.
In order to enable the identification of the nucleotide composition and functional ability to suppress nonsense codons by new types of tRNA, an All-In-One Plasmid With A One Pot Cloning Reaction was invented for High Throughput Cloning FIG. 11. This approach enables the facile investigation of ACE-tRNA activity via luciferase activity in a standard 96 well format. Briefly, synthetic nucleotide sequences encoding for tRNA are ligated into the NanoLuc Reporter plasmid, with an example of the TGA nonsense reporter plasmid variant shown in FIG. 11. […] and TAG (amber) stop codon rescue vectors have been successfully designed and implemented in FIGS. 16-19. The benefits are the approach is that DNA oligos encoding for tRNA libraries can be ligated in the NanoLuc reporter plasmid with the presence of the restriction enzyme and ligase with the reaction pushed to nearly 100% incorporation of tRNA insert (FIG. 11)-thus the ‘one-pot’ designation. The reaction is transformed into E. coli, with the resultant cDNA purified by standard methods. […]

With “Trpchr17.trna39: top performing tryptophan ACE-tRNA UGA suppressor, SEQ ID NO: 48” the Ranking (Table 7, Trp TGA) was “#1” and the “stop codon selectivity (NanoLuc TGA, TAA or TAG reporter)” value (listed as ACE-tRNA^Trp) was “Stop codon specificity is maintained”.

B1: Glychr19.trna2: top performing glycine ACE-tRNA UGA suppressor, SEQ ID NO: 53 (nucleic acid)
chain: GCGTTGGTGGTATAGTGGTTAGCATAGCTGCCTTCAAAGCAGTTGACCCGGGTTCGATTCCCGGCCAACGCA
modifications: chemistry not fully specified
With B1 the Ranking (Table 8, Gly TGA) was “#1” and the “stop codon selectivity (NanoLuc TGA, TAA or TAG reporter)” value (listed as Glychr19.t2) was “selectively suppresses the UGA stop codon”.
